In US20200087258A1, “INHIBITOR OF CITRATE TRANSPORTER AND THEIR USE IN THERAPY” (Eternygen GmbH, priority 2017, published 2020):
pIC50: −log10 of the molar value.

Biological target: T1, GLUT1 (Homo sapiens, UniProt P11166)
T1 construct: Huh-7 cells which endogenously express GLUT1; endogenous in cells; host or cells: Huh-7
T1 sequence (P11166 1-492): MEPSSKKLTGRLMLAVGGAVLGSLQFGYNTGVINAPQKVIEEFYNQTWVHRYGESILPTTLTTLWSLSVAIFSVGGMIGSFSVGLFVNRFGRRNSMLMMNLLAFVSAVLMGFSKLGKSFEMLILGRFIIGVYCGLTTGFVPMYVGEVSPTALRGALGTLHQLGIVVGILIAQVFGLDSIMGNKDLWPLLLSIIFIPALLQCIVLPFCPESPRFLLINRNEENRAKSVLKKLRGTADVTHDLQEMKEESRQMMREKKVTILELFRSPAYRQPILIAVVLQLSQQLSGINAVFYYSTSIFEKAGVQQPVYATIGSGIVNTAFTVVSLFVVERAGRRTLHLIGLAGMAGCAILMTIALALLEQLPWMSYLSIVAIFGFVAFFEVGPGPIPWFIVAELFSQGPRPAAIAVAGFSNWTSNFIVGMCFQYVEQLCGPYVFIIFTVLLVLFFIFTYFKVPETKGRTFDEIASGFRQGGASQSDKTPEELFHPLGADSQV
Assay: 3H-glucose uptake counter assay in Huh7 cells endogenously expressing GLUT1
Type: cell-based
Conditions: endogenous GLUT1
Description: The compound was obtained by screening of a library containing more than 50,000 lead-like compounds and fragments. The library was tested using a functional citrate uptake assay with HEK293 cells overexpressing recombinant human INDY. The following hit confirmation was conducted in the same assay system. To confirm the activity of selected compounds on the target INDY another cell assay was conducted. In this assay system citrate uptake was measured using HepG2 cells which endogenously express INDY. Furthermore selectivity of selected compounds was tested for two other transporters in different assay systems. The first transporter was the glutamate transporter GLT-1 tested in a glutamate uptake assays using HEK293 cells overexpressing recombinant human GLT-1. The second transporter was the glucose transporter GLUT1 tested in a glucose uptake assay using Huh-7 cells which endogenously express GLUT1. Compounds were considered to be selective with an at least 5-fold higher activity for INDY than for the other two transporters.
Cells were maintained in cell medium using cell culture grade flasks (CellSTACK Corning, 500 cm2 dishes or T175 depending on cell number). The selection antibiotic and G418 (800 μg/ml) was added during cultivation but not for seeding into assay plates. For splitting, cells were washed with PBS (w/o Ca2+, Mg2+, phenol red) and detached with Trypsin/EDTA. Throughout cultivation cells were kept sub-confluent. Detached cells (50,000 cells/well) were seeded in 96-well plates (white, clear bottom from Corning #655098) and incubated over night before usage in the assay. The following media were used. For HEK293 cells expressing INDY MEM (PAA)+10% FCS+1×P/S+2 mM L-Gln; for HEK293 cells expressing GLT-1 DMEM (Gibco)+10% FCS+400 µg/ml G418; for Huh7 cells DMEM (Gibco)+10% FCS+2 mM L-Gin (+1×P/S); for HepG2 cells MEM (PAA, Cat # E15-024)+10% FCS+2 mM L-Gin+1×NEAA+1 mM Na-Pyruvat […]
Glucose uptake in Huh7 cells was measured as a counter assay. […] After 20 min incubation at RT plates were measured using TopCount system, Perkin Elmer. […]

O=C(NCc1ccccc1F)C1CCN(S(=O)(=O)/C=C/c2ccccc2)CC1 [Example 5]
pIC50: < 4.30
